The target in data set [1] is T1, GABA-AT (Sus scrofa (Pig), UniProt P80147). The data set is described as follows: Inhibition of GABA-AT, coupled assay with SSDH. It counts as biochemical. The procedure:
(§1) GABA-AT was isolated and purified from pig brain by a published procedure.
Inhibition constants were determined by monitoring GABA-AT activity in the presence of 0-50 mM concentrations of synthesized analogues using a coupled assay with the enzyme succinic semialdehyde dehydrogenase (SSDH). The assay solution consisted of 10 mM GABA, 5 mM α ketoglutarate, 1 mM NADP^+, 5 mM β-mercaptoethanol, and excess SSDH in 50 mM potassium pyrophosphate buffer, pH 8.5. Enzyme activity was determined by observing the change in absorbance at 340 nm at 25° C. IC50 values were obtained using non-linear regression in GraphPad Prism5 software. Subsequent Ki values were determined using the Cheng-Prusoff relationship. (Yung-Chi, C.; Prusoff, W. H. Biochem. Pharmacol. 1973, 22, 3099-3108.)

The subject of data set [2] is aspartate aminotransferase. The conditions noted are these: off-target enzyme; cited from earlier work.
Data set [3] relates to GABA-AT. The conditions noted are these: prior art; cited from earlier work.
The next data set concerns the target CYP2D6 (Homo sapiens (Human), UniProt P10635). The data set can be described thus: Inhibition of microsomal cytochromes P450: CYP2D6. The conditions noted are these: 10 μM, HLM, dextromethorphan substrate, 10 min at 37° C. It counts as in vitro ADME. The procedure: (§2) The experiments were performed by Eurofins Panlabs (Redmond, Wash. 98052, USA). CYP1A inhibition (HLM, phenacetin substrate), CYP2B6 inhibition (HLM, bupropion substrate), CYP2C8 inhibition (HLM, paclitaxel substrate), CYP2C9 inhibition (HLM, diclofenac substrate), CYP2C19 inhibition (HLM, omeprazole substrate), CYP2D6 inhibition (HLM, dextromethorphan substrate), and CYP3A inhibition (HLM, midazolam and testosterone substrates) were tested. The test concentration was 10 μM. The incubation time was 10 min at 37° C. The detection method was by HPLC-MS/MS. The experiments were duplicated, and the % inhibition of the control values was averaged (FIG. 10).

The target in another data set is CYP2C19 (Homo sapiens (Human), UniProt P33261). The data set can be described thus: Inhibition of microsomal cytochromes P450: CYP2C19. It counts as in vitro ADME. The following applies: 10 μM, HLM, omeprazole substrate, 10 min at 37° C. As for the experimental part: as §2
CYP2C19, sequence (P33261 whole entry): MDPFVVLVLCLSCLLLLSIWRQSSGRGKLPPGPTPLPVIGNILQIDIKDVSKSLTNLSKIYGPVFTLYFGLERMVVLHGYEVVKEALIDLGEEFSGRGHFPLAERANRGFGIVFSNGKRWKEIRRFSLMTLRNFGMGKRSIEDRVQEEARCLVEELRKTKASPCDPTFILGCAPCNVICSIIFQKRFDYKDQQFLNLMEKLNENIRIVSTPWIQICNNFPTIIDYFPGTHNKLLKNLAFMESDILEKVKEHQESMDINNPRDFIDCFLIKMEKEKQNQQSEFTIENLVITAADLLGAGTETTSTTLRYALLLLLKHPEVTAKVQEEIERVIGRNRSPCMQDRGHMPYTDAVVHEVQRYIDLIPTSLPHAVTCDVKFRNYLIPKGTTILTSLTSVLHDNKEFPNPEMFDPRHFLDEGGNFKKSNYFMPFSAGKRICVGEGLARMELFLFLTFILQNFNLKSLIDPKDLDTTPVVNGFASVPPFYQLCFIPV
For a further data set, the target named is hERG channel (Homo sapiens (Human), UniProt Q12809). The data set can be described thus: Inhibition of the hERG channel, automated whole-cell patch clamp. Format: cell-based. The conditions noted are these: hERG CHO-K1 cell line; 0.1, 1 and 10 μM; 5 min at room temperature. As for the experimental part: The experiments were performed by Eurofins Panlabs (Redmond, Wash. 98052, USA). hERG CHO-K1 cell line was used. The test concentrations were 0.1 μM, 1 μM, and 10 μM. The incubation time was 5 min at room temperature, cumulatively. The detection method used an automated whole-cell patch clamp. The experiments were duplicated, and the % inhibition of the tail current was averaged (FIG. 9).
hERG channel, sequence (Q12809 whole entry): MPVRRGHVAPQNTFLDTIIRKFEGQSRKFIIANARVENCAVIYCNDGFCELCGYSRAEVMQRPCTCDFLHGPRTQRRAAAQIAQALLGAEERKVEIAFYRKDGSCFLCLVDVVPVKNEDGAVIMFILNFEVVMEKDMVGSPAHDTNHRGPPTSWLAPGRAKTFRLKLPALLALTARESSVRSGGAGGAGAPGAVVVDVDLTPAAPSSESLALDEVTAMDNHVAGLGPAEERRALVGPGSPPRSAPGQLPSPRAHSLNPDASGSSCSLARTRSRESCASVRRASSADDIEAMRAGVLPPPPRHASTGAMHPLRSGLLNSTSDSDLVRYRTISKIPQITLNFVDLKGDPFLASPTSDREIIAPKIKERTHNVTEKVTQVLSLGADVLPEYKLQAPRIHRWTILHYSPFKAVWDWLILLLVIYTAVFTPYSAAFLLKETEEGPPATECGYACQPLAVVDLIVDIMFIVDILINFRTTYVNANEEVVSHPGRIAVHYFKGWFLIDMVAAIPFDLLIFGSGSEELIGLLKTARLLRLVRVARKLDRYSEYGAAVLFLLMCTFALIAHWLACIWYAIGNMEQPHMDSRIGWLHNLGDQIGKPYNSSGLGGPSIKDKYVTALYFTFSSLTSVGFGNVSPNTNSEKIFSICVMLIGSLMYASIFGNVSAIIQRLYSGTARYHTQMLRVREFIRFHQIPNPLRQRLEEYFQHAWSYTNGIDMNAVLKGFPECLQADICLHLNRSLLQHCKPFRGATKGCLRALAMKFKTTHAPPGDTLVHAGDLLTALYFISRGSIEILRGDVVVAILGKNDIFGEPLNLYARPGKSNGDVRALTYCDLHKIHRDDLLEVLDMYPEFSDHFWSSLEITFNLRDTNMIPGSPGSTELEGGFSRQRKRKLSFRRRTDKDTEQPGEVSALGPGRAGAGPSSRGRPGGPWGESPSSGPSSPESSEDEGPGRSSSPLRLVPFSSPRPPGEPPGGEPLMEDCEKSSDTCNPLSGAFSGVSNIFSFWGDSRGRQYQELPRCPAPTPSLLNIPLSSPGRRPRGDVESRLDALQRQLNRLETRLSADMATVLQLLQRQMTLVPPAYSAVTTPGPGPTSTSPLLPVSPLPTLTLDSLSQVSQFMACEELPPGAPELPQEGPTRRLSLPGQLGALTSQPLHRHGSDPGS

In a further data set the target is CYP1A (Homo sapiens (Human), UniProt P05177). The data set can be described thus: Inhibition of microsomal cytochromes P450: CYP1A. Format: in vitro ADME. The conditions noted are these: 10 μM, HLM, phenacetin substrate, 10 min at 37° C. The procedure:
as §2

A short description of the next data set: Plasma protein binding. It counts as in vitro ADME.
A further data set addresses CYP2C9 (Homo sapiens (Human), UniProt P11712). The data set is described as follows: Inhibition of microsomal cytochromes P450: CYP2C9. Format: in vitro ADME. The following applies: 10 μM, HLM, diclofenac substrate, 10 min at 37° C. As for the experimental part: as §2
Data set [4] concerns the target T1, GABA-AT. The data set can be described thus: Time-dependent inhibition (inactivation) of GABA-AT, Kitz and Wilson replot. Format: biochemical. The conditions noted are these: preliminary in vitro results. As for the experimental part: as §1
GABA-AT (17.5 μL) was incubated in the presence of varying concentrations of each compound (70 μL final volume) at 25° C. in 50 mM potassium pyrophosphate buffer solution, pH 6.5, containing 5 mM α-ketoglutarate and 1 mM β-mercaptoethanol. […] The relative enzyme activity was determined by normalizing the rate of increasing absorbance at 340 nm to a control. A Kitz and Wilson replot was used to determine the kinetic constants KI and kinact.

Another data set deals with CYP2B6 (Homo sapiens (Human), UniProt P20813). The data set can be described thus: Inhibition of microsomal cytochromes P450: CYP2B6. The following applies: 10 μM, HLM, bupropion substrate, 10 min at 37° C. It counts as in vitro ADME. The procedure: as §2
CYP2B6, sequence (P20813 whole entry): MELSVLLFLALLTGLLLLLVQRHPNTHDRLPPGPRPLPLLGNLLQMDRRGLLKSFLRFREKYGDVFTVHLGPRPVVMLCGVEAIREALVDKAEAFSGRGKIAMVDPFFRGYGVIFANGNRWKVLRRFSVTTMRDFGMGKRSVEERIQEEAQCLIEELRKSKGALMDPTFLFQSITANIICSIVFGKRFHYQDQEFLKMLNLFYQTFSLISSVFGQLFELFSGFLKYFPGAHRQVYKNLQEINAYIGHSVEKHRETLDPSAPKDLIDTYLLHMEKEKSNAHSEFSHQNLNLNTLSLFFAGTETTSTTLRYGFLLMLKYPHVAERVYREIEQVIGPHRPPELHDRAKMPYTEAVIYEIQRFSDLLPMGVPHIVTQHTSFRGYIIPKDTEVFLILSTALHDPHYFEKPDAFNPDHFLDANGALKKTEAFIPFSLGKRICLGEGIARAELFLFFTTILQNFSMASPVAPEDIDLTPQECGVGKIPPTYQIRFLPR
Data set [5] is described as follows: Metabolic stability in human liver microsomes. It counts as in vitro ADME. The conditions noted are these: 0.1 μM, over 60 minutes at 37° C., LC-MS/MS. As for the experimental part:
The experiments were performed by Eurofins Panlabs (Redmond, Wash. 98052, USA). The test concentration of 17 was 0.1 μM. […] The detection method was by LC-MS/MS. Imipramine, propranolol, terfenadine, and verapamil were run in similar condition as controls.
(Microsomes from liver hold many membrane-bound enzymes, among them those of drug oxidation.)

The next data set addresses CYP2C8 (Homo sapiens (Human), UniProt P10632). The data set is described as follows: Inhibition of microsomal cytochromes P450: CYP2C8. It counts as in vitro ADME. The conditions noted are these: 10 μM, HLM, paclitaxel substrate, 10 min at 37° C. The procedure:
as §2

A further data set relates to CYP3A. The data set can be described thus: Inhibition of microsomal cytochromes P450: CYP3A. It counts as in vitro ADME, human. The following applies: 10 μM, HLM, midazolam and testosterone substrates, 10 min at 37° C. The procedure: as §2
A further data set relates to infantile spasms. The following applies: multiple-hit rat model of infantile spasms; cited from earlier work.
Where [6] appears, read: competitive inhibition, read-out: Ki (competitive inhibitor of GABA-AT).

Counter-ions that a name gives are not always drawn. Like-named read-outs stand apart in the source and are kept apart here.

For orientation: Ki means a dissociation constant, usually derived from enzyme kinetics or from competition with a known ligand. The term fraction unbound denotes free concentration divided by total concentration. Read a low fraction unbound as little free substance.

T1 sequence (P80147 29-500 limits assumed): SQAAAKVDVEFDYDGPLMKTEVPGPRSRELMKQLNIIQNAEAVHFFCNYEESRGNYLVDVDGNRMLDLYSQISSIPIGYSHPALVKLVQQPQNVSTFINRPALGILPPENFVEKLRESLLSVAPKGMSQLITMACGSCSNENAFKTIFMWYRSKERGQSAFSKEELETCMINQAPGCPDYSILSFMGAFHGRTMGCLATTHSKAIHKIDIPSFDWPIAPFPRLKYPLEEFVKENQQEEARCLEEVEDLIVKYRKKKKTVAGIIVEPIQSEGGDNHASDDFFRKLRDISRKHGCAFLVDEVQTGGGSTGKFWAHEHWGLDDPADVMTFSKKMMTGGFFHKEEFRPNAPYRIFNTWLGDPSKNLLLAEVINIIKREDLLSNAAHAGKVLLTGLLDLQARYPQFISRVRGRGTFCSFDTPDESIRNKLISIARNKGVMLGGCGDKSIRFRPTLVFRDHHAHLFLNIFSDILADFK
CYP2D6, sequence (P10635 whole entry): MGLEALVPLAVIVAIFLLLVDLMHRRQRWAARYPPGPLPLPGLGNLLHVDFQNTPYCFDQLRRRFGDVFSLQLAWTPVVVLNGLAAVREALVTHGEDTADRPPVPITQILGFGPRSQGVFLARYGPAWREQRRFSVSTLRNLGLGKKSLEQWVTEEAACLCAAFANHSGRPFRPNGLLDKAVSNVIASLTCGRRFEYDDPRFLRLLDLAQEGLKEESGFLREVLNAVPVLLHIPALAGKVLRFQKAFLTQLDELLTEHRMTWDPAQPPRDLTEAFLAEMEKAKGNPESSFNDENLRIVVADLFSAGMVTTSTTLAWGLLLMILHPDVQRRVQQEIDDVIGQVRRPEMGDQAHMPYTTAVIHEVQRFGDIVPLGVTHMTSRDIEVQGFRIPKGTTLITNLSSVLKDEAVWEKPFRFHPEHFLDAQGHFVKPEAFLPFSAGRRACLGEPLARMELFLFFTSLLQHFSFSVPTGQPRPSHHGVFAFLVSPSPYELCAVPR
CYP1A, sequence (P05177 whole entry): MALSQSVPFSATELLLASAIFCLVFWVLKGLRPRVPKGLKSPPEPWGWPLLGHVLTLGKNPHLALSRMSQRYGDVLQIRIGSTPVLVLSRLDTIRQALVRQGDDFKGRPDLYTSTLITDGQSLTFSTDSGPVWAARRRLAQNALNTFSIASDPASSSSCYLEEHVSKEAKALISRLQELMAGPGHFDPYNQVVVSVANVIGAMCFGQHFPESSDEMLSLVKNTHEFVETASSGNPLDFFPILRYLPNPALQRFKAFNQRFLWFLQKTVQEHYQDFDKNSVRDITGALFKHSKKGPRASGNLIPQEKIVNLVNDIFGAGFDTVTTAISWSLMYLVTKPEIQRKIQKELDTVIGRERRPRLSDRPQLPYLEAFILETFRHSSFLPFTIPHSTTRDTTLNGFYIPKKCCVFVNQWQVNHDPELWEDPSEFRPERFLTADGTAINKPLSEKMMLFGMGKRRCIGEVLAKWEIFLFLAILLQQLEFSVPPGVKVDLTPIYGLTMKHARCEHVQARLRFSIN
CYP2C9, sequence (P11712 whole entry): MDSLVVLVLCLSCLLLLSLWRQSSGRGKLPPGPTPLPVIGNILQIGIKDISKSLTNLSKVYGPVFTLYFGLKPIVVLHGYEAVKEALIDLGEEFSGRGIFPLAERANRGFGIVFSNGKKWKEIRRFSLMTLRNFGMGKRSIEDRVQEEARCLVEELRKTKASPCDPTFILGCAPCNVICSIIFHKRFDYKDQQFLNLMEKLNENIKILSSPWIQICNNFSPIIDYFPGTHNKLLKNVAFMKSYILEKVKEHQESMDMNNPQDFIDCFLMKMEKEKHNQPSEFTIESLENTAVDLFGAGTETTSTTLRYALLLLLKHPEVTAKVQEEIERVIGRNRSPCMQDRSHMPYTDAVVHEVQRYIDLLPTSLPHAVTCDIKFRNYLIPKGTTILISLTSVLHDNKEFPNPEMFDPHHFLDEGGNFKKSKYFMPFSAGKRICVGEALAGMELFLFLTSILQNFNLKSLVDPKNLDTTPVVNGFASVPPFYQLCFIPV
CYP2C8, sequence (P10632 whole entry): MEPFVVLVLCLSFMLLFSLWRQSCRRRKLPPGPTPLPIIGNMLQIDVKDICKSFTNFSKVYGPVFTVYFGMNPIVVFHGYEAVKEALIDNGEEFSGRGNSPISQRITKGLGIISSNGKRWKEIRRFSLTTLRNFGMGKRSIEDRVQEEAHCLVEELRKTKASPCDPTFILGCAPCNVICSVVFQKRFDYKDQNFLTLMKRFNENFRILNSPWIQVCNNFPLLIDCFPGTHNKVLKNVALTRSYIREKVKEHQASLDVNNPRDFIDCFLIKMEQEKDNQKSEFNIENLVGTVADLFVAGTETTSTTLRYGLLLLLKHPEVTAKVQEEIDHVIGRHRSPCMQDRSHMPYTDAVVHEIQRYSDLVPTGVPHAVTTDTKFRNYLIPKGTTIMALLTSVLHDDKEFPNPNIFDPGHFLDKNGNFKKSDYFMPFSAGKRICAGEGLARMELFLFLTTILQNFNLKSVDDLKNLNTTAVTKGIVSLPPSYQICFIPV

As to `N[C@H]1CC(C(=O)O)S(=O)(=O)C1` (mixture of isomers) [Compound 19, (4S)-4-Aminotetrahydrothiophene-2-carboxylic acid 1,1-dioxide hydrochloride], the inhibition constant (Ki) on GABA-AT [1] (read-out: Ki (reversible inhibition)) was found to be 3200 ± 700 µM.

For the molecule `N[C@H]1C=C(C(=O)O)SC1` [(S)-4-Amino-4,5-dihydro-2-thiophenecarboxylic acid], in data set [2], the “Inactivation or inhibition of aspartate aminotransferase” value was “inactivator”. Also, the “Potency/inactivation of GABA-AT (in words)” value in the data set with GABA-AT [3] was “known inactivator”.

Take `Cl.N[C@@H]1CS[C@H](C(=O)O)C1` [Compound 17, (2S,4S)-4-Aminotetrahydrothiophene-2-carboxylic acid hydrochloride]: on CYP2D6, the CYP2D6 inhibition result was “did not inhibit or induce”. In addition, at CYP2C19, the CYP2C19 inhibition result is “did not inhibit or induce”. Besides, the “Inhibition of the hERG channel” value on hERG channel is “did not inhibit”. In addition, the CYP1A inhibition entry on CYP1A is on record as “did not inhibit or induce”. In “Plasma protein binding”, this molecule had a fraction unbound of 0.74. Besides, the CYP2C9 inhibition entry at CYP2C9 is “did not inhibit or induce”. In addition, on GABA-AT [4], the “Inactivation of GABA-AT (in words)” value is recorded as “potent inactivators”. Further, the CYP2B6 inhibition result at CYP2B6 is reported as “did not inhibit or induce”. For the same molecule, the “metabolized in HLM” value in [5] is on record as “less than 20%”. Also, at CYP2C8, the CYP2C8 inhibition result is listed as “did not inhibit or induce”. In the data set on CYP3A, the CYP3A inhibition entry is given as “did not inhibit or induce”.

For the molecule `Cl.N[C@@H]1CS[C@@H](C(=O)O)C1` [Compound 18, (2R,4S)-4-Aminotetrahydrothiophene-2-carboxylic acid hydrochloride], the “Inactivation of GABA-AT (in words)” value at GABA-AT [4] is reported as “potent inactivators”.

Regarding `N[C@@H]1CC(C(=O)O)S(=O)(=O)C1` (stereo partly drawn) [Compound 22], the inhibition constant (Ki) at GABA-AT [1] (pH 8.5, 25° C., from IC50 by Cheng-Prusoff, read-out: Ki (reversible inhibition)) turned out to be 7500 ± 700 µM.

Regarding `N[C@@H]1CC[C@H](C(=O)O)C1` [Compound 39, (1S,3R)-3-aminocyclopentane-1-carboxylic acid], the “Inactivation of GABA-AT (in words)” value on GABA-AT [4] was “not an inactivator”. Moreover, the Ki on GABA-AT [1] (setting [6]) was found to be 870 µM.

Turning to `N[C@@H]1CN[C@H](C(=O)O)C1` [Compound 41, (2S,4S)-4-aminopyrrolidine-2-carboxylic acid], the Ki at GABA-AT [1] (setting [6]) was found to be 1300 µM.

Consider `C=CC(N)CCC(=O)O` (stereo not drawn) [vigabatrin], for which the “Duration of effective spasms suppression” value in the data set with infantile spasms was 1 days.

In the case of “mixture of (2S,4S)-4-aminotetrahydrofuran-2-carboxylic acid (40) and (2R,4R)-4-aminotetrahydrofuran-2-carboxylic acid (51) [mixture of enantiomers 40 and 51]”, the Ki on GABA-AT [1] (setting [6]) is 430 µM.
